Results published in publication PMC4467461, “Small-molecule activation of SERCA2a SUMOylation for the treatment of heart failure” (Nature Communications, 2015).

Target: T1, SUMO E1 SAE1 V315F mutant (Homo sapiens, UniProt Q9UBE0+Q9UBT2, V315F)
T1 construct: GST (N); made in house; host or cells: Escherichia coli BL21
T1 sequence (Q9UBE0 1-346 V315F): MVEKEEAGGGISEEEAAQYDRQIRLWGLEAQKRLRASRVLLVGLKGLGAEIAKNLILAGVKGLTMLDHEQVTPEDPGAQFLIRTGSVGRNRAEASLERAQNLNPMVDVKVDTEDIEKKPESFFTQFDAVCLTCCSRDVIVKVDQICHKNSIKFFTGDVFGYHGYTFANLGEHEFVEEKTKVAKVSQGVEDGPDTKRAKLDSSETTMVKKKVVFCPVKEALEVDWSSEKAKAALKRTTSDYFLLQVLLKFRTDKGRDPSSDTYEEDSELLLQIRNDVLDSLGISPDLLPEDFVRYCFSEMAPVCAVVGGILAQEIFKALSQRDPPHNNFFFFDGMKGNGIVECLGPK
T1 sequence (Q9UBT2 1-640): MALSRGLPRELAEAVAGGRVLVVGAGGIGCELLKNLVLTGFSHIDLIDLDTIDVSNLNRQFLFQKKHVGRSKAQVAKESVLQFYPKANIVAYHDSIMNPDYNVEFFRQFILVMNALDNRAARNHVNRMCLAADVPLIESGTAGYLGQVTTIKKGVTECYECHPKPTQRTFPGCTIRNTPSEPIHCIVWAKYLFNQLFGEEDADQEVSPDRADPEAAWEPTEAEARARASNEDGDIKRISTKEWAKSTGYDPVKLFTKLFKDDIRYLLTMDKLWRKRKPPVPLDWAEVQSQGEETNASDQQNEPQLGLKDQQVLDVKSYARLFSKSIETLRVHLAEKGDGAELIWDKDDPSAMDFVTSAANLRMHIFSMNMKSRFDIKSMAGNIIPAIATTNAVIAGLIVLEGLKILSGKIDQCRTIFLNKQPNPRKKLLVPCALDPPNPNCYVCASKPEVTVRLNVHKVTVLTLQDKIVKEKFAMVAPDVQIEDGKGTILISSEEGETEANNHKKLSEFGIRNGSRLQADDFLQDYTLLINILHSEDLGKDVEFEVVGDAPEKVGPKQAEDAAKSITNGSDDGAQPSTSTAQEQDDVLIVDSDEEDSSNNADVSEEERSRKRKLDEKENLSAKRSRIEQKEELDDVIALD
Experiment: SUMO E1 activity assays with SAE1 V315F mutant
Format: biochemical
Description: Figure 3 SUMO-specific activating enzyme, E1, is a direct target of N106. Mechanism of action of N106 on individual steps in the SUMOylation cascade in vitro. (a) Inorganic pyrophosphate resulting from ATP hydrolysis in E1-catalysed SUMO-1 activation in the presence of increasing concentration of N106 compound was assessed by fluorogenic pyrophosphate assay kit. Recombinant human SUMO-specific E1 (0.05 μM), human Ubc9 (0.25 μM), human SUMO-1 (12.5 μM) and ATP (1 mM) were incubated with increasing concentration of N106 for 30 min at 37 °C and quantified using a fluorescence microplate reader. (b) The SAE2-SUMO-1 conjugation was detected followed by western blotting with anti-SAE2 antibodies. SUMO E1 (0.05 μM), SUMO-1 (12.5 μM) and ATP (1 mM) were co-incubated with increasing concentration of N106 for 30 min at 37 °C. The reaction mixtures were separated on 7.5% SDS–PAGE gel under non-reducing conditions. (c) E2-SUMO-1 conjugation was visualized by western blotting with anti-Ubc9 antibody. SUMO E1 (0.05 μM), Ubc9 (0.25 μM), SUMO-1 (12.5 μM) and ATP (1 mM) were incubated without or with increasing concentration of N106 for 30 min at 37 °C. […] (e) ATP hydrolytic activity of WT and mutant SUMO E1 are determined. (f) The E1-SUMO-1 conjugation was detected followed by western blot analysis with anti-SAE2 antibody. *The SAE2-SUMO-1 conjugated bands. […]

## COc1ccc(-c2nnc(Nc3nc4c(OC)cccc4s3)o2)cc1 [Compound N106, N-(4-methoxybenzo[d]thiazol-2-yl)-5-(4-methoxyphenyl)-1,3,4-oxadiazol-2-amine]
V315F mutant
  ATP hydrolysis activity with N106, compared with wild-type protein: significantly lower
V315F mutant SAE1
  SUMO E1-SUMO and SUMO E2-SUMO conjugations in the presence of N106, compared with WT: weaker
